Data: PubChem BioAssay AID1963978 (Molecular Pharmacology Branch, DTP, NCI, 2024)
pIC50: −log10 of the molar value. Where “and” joins values, the source holds several entries; their conditions need not be identical. Identical values can stand only once.

System: 616215-338-R-J1-PDC spheroids with HUVEC/MSC, viability
Experiment: Anticancer human tumor 616215-338-R-J1-PDC patient-derived colon adenocarcinoma cell line growth inhibition [PI3K]
Conditions: for viability, T/C: stronger effect = lower value
Source text: Combinatorial screen of targeted agents with the PI3K inhibitors inavolisib, alpelisib, duvelisib, and copanlisib in multi-cell type tumor spheroids
A high-throughput screen of multi-cell type tumor spheroids was designed to identify active combinations of targeted small molecules and PI3K pathway inhibitors. Complex spheroids include a stromal component modeled by human endothelial cells (HUVEC) and fibroblasts modeled by human mesenchymal stem cells (MSCs). The concentration ranges selected for each drug and investigational agent were based upon clinically achievable concentrations if the clinical Cmax of the agent was known.
Compounds. The drugs and investigational agents: inavolisib (NSC800729), alpelisib (NSC765974), duvelisib (NSC772469), copanlisib (NSC816437), ipatasertib (NSC767898), afuresertib (NSC778305), talazoparib (NSC767125), sapanisertib (NSC764658), selumetinib (NSC741078), tovorafenib (DAY101, NSC766906), vemurafenib (NSC761431), ravoxertinib (NSC781343), sotorasib (NSC818433), MRTX1133 (NSC 836407), abemaciclib (NSC 768073), palbociclib (NSC758247), venetoclax (NSC 766270), SY5609 (NSC837396), enzalutamide (NSC755605), and darolutamide (NSC825331), were obtained from the National Cancer Institute (NCI) Developmental Therapeutics Program Chemical Repository. The FDA-approved anticancer drug set is available from the NCI Developmental Therapeutics Program. […] The stock solutions were prepared in dimethyl sulfoxide (DMSO, Sigma-Aldrich, St. Louis, MO, cat. D2650) at 800-fold the tested concentration and stored at -70 degrees C prior to their use. All drugs and investigational agents were tested over a range starting from a high concentration at or near the clinical Cmax and decreasing in half-log increments. If the clinical Cmax for an agent had not been determined, the highest concentration tested was 10 microM.
Cell Culture. All cells were maintained in an incubator at 37 degrees C and 5% CO2 with 95% humidity. The PDC lines were cultured according to standard operating procedures established by the NCI PDMR (https://pdmr.cancer.gov/sops/default.htm). All PDCs were thawed and cultured in Matrigel-coated flasks prepared with a working solution of 1X Ham's F-12 nutrient mix, without supplementation (Invitrogen, Waltham, MA, cat. 11765054), 100 U/mL penicillin-streptomycin (Invitrogen, cat. 15140122), and 2.5% Matrigel (Corning Inc., Corning, NY, cat. 354248) for the first three passages. The 354836-022-R-J1-PDC, 475296-252-R-J1-PDC, and 997726-040-R-J2-PDC lines were cultured in 6A media, which includes advanced DMEM/F-12 (Thermo Fisher Scientific, cat. 12634028), 10 mM HEPES (Thermo Fisher Scientific, cat. 15630080), 1X GlutaMAX supplement (Thermo Fisher Scientific, cat. 35050061), 0.1 mg/mL primocin (InvivoGen, San Diego, CA, cat. ant-pm-2), 10% defined fetal bovine serum, heat inactivated (HyClone Laboratories Inc., Logan, UT, cat. SH30070.03HI), 50% L-WRN conditioned media (ATCC, cat. CRL-3276), 1.25 mM N-Acetyl-L-cysteine (Sigma-Aldrich, cat. A9165), 10 mM nicotinamide (Sigma-Aldrich, cat. N0636), 1X B-27 supplement (Thermo Fisher Scientific, cat. 17504044), 1X N-2 supplement (Thermo Fisher Scientific, cat. 17502048), and 10 microM Y-27632 dihydrochloride (Tocris Bioscience, Bristol, United Kingdom, cat. 1254). The 624824-186-R-J2-PDC line was cultured in 6C/Colon 1B media, which includes all 6A media components plus 50 ng/mL human EGF recombinant protein (Thermo Fisher Scientific, cat. PHG0311). […]
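Further: spheroids exposed to agents for seven days before the viability read.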

C#Cc1c(F)ccc2cc(O)cc(-c3ncc4c(N5CC6CCC(C5)N6)nc(OCC56CCCN5CC(F)C6)nc4c3F)c12 (stereo unspecified)
viability, T/C (compound 0.0316 µM): 97.3% [middle of 4 runs]
viability, T/C (compound 0.1 µM): 96.7% [middle of 4 runs]
viability, T/C (compound 0.316 µM): 105% [middle of 4 runs]
viability, T/C (compound 1 µM): 96.1% [middle of 4 runs]
viability, T/C (compound 3.16 µM): 95% [middle of 4 runs]
viability, T/C (compound 10 µM): 83% [middle of 4 runs]
pIC50 (curve of compound): < 5.00

C=CC(=O)N1CCN(c2nc(=O)n(-c3c(C)ccnc3C(C)C)c3nc(-c4c(O)cccc4F)c(F)cc23)C(C)C1 (stereo unspecified)
viability, T/C (compound 0.0316 µM): 96.2% [middle of 4 runs]
viability, T/C (compound 0.1 µM): 92% [middle of 4 runs]
viability, T/C (compound 0.316 µM): 99% [middle of 4 runs]
viability, T/C (compound 1 µM): 99.8% [middle of 4 runs]
viability, T/C (compound 3.16 µM): 93% [middle of 4 runs]
pIC50 (curve of compound): < 5.00

CC(Cn1ccc(-c2ccc(C#N)c(Cl)c2)n1)NC(=O)c1cc(C(C)O)[nH]n1 (stereo unspecified)
viability, T/C (compound 0.0316 µM): 99.3% [middle of 4 runs]
viability, T/C (compound 0.316 µM): 97.2% [middle of 4 runs]
viability, T/C (compound 1 µM): 101% [middle of 4 runs]
viability, T/C (compound 10 µM): 101% [middle of 4 runs]
pIC50 (curve of compound): < 5.00

CC1(C)CCC(CN2CCN(c3ccc(C(=O)NS(=O)(=O)c4ccc(NCC5CCOCC5)c([N+](=O)[O-])c4)c(Oc4cnc5[nH]ccc5c4)c3)CC2)=C(c2ccc(Cl)cc2)C1
viability, T/C (compound 0.1 µM): 99.5% [middle of 4 runs]
viability, T/C (compound 0.316 µM): 96.5% [middle of 4 runs]
viability, T/C (compound 1 µM): 96.4% [middle of 4 runs]
viability, T/C (compound 3.16 µM): 77.8% [middle of 4 runs]

CC1(C)CCC(Nc2ncc(C(F)(F)F)c(-c3c[nH]c4c(P(C)(C)=O)c(C#N)ccc34)n2)CN1 (stereo unspecified)
viability, T/C (compound 0.1 µM): 54.8% [middle of 4 runs]
viability, T/C (compound 1 µM): 60.8% [middle of 4 runs]
viability, T/C (compound 3.16 µM): 55.7% [middle of 4 runs]
viability, T/C (compound 10 µM): 0.49% [middle of 4 runs]

CCCS(=O)(=O)Nc1ccc(F)c(C(=O)c2c[nH]c3ncc(-c4ccc(Cl)cc4)cc23)c1F
viability, T/C (compound 0.0316 µM): 95.5% [middle of 4 runs]
viability, T/C (compound 0.1 µM): 93.5% [middle of 4 runs]
viability, T/C (compound 0.316 µM): 97.2% [middle of 4 runs]
viability, T/C (compound 1 µM): 92.5% [middle of 4 runs]
viability, T/C (compound 10 µM): 2.66% [middle of 4 runs]
pIC50 (curve of compound): 5.36 and 5.41 and 5.29

CNC(=O)c1ccc(N2C(=S)N(c3ccc(C#N)c(C(F)(F)F)c3)C(=O)C2(C)C)cc1F
viability, T/C (compound 0.0316 µM): 100% [middle of 4 runs]
viability, T/C (compound 0.1 µM): 102% [middle of 4 runs]
viability, T/C (compound 0.316 µM): 100% [middle of 4 runs]
viability, T/C (compound 1 µM): 93.9% and 100% and 102%
viability, T/C (compound 3.16 µM): 101% [middle of 4 runs]
viability, T/C (compound 10 µM): 104% [middle of 4 runs]
pIC50 (curve of compound): < 5.00

C[C@@H](NC(=O)c1ncnc(N)c1Cl)c1ncc(C(=O)Nc2cc(C(F)(F)F)c(Cl)cn2)s1
viability, T/C (compound 0.0316 µM): 103% [middle of 4 runs]
viability, T/C (compound 0.1 µM): 92.3% [middle of 4 runs]
viability, T/C (compound 0.316 µM): 112% [middle of 4 runs]
viability, T/C (compound 1 µM): 106% [middle of 4 runs]
viability, T/C (compound 3.16 µM): 109% [middle of 4 runs]
viability, T/C (compound 10 µM): 86.8% [middle of 4 runs]
pIC50 (curve of compound): < 5.00

Cn1ncc(Cl)c1-c1cc(C(=O)NC(CN)Cc2cccc(F)c2)sc1Cl (stereo unspecified)
viability, T/C (compound 0.0316 µM): 94% [middle of 4 runs]
viability, T/C (compound 0.1 µM): 97.8% [middle of 4 runs]
viability, T/C (compound 0.316 µM): 96.6% [middle of 4 runs]
viability, T/C (compound 1 µM): 97.7% [middle of 4 runs]
viability, T/C (compound 10 µM): 35.6% [middle of 4 runs]
IC50 (curve of compound): 6.53 µM [middle of 4 runs]

Cn1nccc1Nc1nccc(-c2ccn(C(CO)c3ccc(Cl)c(F)c3)c(=O)c2)n1 (stereo unspecified)
viability, T/C (compound 0.0316 µM): 96.3% [middle of 4 runs]
viability, T/C (compound 0.1 µM): 101% [middle of 4 runs]
viability, T/C (compound 0.316 µM): 90.4% [middle of 4 runs]
viability, T/C (compound 1 µM): 66.4% [middle of 4 runs]
viability, T/C (compound 3.16 µM): 56.4% [middle of 4 runs]
viability, T/C (compound 10 µM): 40.1% [middle of 4 runs]
IC50 (curve of compound): 3.91 µM [middle of 4 runs]

Cn1cnc2c(F)c(Nc3ccc(Br)cc3Cl)c(C(=O)NOCCO)cc21 + CC(Nc1ccc2c(c1)OCCn1cc(N3C(=O)OCC3C(F)F)nc1-2)C(N)=O
pIC50 (curve of first compound, second compound 0.00316 µM): 5.85
pIC50 (curve of first compound, second compound 0.01 µM): 5.94
pIC50 (curve of first compound, second compound 0.0316 µM): 6.12
pIC50 (curve of first compound, second compound 0.1 µM): 6.01
pIC50 (curve of first compound, second compound 0.316 µM): 6.31
pIC50 (curve of first compound, second compound 1 µM): 6.39
viability, T/C (second compound 0.00316 µM, first compound 0.00949 µM): 96.5%
viability, T/C (second compound 0.00316 µM, first compound 0.03 µM): 98.9%
viability, T/C (second compound 0.00316 µM, first compound 0.0949 µM): 83.7%
viability, T/C (second compound 0.00316 µM, first compound 0.3 µM): 76%
viability, T/C (second compound 0.00316 µM, first compound 0.949 µM): 56.8%
viability, T/C (second compound 0.00316 µM, first compound 3 µM): 36.5%
viability, T/C (second compound 0.01 µM, first compound 0.00949 µM): 94.6%
viability, T/C (second compound 0.01 µM, first compound 0.03 µM): 91%
viability, T/C (second compound 0.01 µM, first compound 0.0949 µM): 87.8%
viability, T/C (second compound 0.01 µM, first compound 0.3 µM): 71.8%
viability, T/C (second compound 0.01 µM, first compound 0.949 µM): 54.7%
viability, T/C (second compound 0.01 µM, first compound 3 µM): 31.4%
viability, T/C (second compound 0.0316 µM, first compound 0.00949 µM): 96.1%
viability, T/C (second compound 0.0316 µM, first compound 0.03 µM): 110%
viability, T/C (second compound 0.0316 µM, first compound 0.0949 µM): 77.2%
viability, T/C (second compound 0.0316 µM, first compound 0.3 µM): 77.5%
viability, T/C (second compound 0.0316 µM, first compound 0.949 µM): 38.3%
viability, T/C (second compound 0.0316 µM, first compound 3 µM): 38.8%
viability, T/C (second compound 0.1 µM, first compound 0.00949 µM): 106%
viability, T/C (second compound 0.1 µM, first compound 0.03 µM): 86.9%
viability, T/C (second compound 0.1 µM, first compound 0.0949 µM): 87.2%
viability, T/C (second compound 0.1 µM, first compound 0.3 µM): 65.2%
viability, T/C (second compound 0.1 µM, first compound 0.949 µM): 48.9%
viability, T/C (second compound 0.1 µM, first compound 3 µM): 37%
viability, T/C (second compound 0.316 µM, first compound 0.00949 µM): 109%
viability, T/C (second compound 0.316 µM, first compound 0.03 µM): 94.8%
viability, T/C (second compound 0.316 µM, first compound 0.0949 µM): 79.4%
viability, T/C (second compound 0.316 µM, first compound 0.3 µM): 57.4%
viability, T/C (second compound 0.316 µM, first compound 0.949 µM): 39%
viability, T/C (second compound 0.316 µM, first compound 3 µM): 35.9%
viability, T/C (second compound 1 µM, first compound 0.00949 µM): 106%
viability, T/C (second compound 1 µM, first compound 0.03 µM): 85.1%
viability, T/C (second compound 1 µM, first compound 0.0949 µM): 79.7%
viability, T/C (second compound 1 µM, first compound 0.3 µM): 51.6%
viability, T/C (second compound 1 µM, first compound 0.949 µM): 37.5%
viability, T/C (second compound 1 µM, first compound 3 µM): 26.4%
